# Laboratory results: ChEMBL document CHEMBL2331348, “Positive allosteric modulators of nicotinic acetylcholine receptor” (ACS Med Chem Lett, 2013)
# Target: Neuronal acetylcholine receptor subunit alpha-7 (Homo sapiens, UniProt P36544)
# Assay: Positive allosteric modulator activity at human alpha7 nAChR expressed in rat GH4C1 cells assessed as potentiation of acetylcholine-induced response by FDSS Ca2+ assay
# Format: cell-based, GH4-C1
# Neuronal acetylcholine receptor subunit alpha-7, sequence (P36544 whole entry): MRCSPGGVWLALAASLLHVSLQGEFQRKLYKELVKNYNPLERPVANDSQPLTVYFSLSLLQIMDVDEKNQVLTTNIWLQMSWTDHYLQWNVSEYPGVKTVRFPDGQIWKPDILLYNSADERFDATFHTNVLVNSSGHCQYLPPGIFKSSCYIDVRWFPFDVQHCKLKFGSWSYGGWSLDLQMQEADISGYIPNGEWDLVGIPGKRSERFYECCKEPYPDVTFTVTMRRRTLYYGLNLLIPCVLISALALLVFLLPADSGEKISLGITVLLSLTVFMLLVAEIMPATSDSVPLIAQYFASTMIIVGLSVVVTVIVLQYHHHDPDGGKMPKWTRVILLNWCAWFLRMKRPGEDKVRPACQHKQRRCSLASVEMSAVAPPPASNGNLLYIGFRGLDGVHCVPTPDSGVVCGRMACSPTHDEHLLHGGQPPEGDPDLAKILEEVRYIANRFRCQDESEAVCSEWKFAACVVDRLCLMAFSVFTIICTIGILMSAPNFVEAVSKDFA
structure (smiles),measurement,value
C[C@H](NC(=O)[C@H]1C[C@@H]1c1ccccc1)c1ccc(S(C)(=O)=O)nc1,EC50,2000 nM
